Assay [1] addresses T1, PLCγ1^wt (Homo sapiens, UniProt P19174, I813T).
T1 construct: specific activities of PLCγ1^wt and PLCγ2^wt full-length proteins; made in house; host or cells: Escherichia coli T7 Express lysY/Iq
T1 sequence (P19174 1-1291 isoform P19174-2 I813T): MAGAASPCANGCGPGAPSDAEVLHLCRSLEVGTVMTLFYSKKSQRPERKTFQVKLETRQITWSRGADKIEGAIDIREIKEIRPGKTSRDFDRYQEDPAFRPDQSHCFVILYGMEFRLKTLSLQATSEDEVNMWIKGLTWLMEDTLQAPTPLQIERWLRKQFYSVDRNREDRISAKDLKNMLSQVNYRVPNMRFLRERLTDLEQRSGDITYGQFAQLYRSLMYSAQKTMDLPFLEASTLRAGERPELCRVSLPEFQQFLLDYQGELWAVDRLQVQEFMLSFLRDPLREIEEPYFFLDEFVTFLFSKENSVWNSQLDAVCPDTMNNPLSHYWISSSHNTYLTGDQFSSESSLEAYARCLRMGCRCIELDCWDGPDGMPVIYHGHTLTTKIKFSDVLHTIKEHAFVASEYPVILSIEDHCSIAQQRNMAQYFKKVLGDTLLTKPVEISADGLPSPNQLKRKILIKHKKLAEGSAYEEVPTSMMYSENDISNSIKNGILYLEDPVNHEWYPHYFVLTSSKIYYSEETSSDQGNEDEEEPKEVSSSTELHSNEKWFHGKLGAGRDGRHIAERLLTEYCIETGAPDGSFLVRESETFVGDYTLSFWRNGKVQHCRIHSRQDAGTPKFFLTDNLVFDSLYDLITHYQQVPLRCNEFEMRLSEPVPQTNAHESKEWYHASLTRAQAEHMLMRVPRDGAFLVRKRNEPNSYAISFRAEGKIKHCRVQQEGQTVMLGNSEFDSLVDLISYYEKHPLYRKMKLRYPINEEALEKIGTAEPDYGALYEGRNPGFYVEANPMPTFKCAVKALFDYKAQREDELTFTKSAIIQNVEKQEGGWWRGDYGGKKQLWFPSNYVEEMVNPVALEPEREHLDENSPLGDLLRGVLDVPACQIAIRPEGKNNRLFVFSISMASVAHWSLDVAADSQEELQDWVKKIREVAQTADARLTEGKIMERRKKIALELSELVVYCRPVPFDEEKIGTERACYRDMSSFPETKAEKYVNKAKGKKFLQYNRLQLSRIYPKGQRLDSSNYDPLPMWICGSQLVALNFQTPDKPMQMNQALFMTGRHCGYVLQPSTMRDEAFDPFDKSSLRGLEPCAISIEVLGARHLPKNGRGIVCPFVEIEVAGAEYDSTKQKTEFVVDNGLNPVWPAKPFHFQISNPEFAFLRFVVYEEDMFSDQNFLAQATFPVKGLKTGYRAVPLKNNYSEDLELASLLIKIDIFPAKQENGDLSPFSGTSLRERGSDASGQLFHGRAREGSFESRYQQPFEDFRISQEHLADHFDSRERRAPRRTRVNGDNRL
The assay can be described thus: Assay 1 (A1) with 10% nickel lipids (His-tagged PLCγ1 immobilised on liposomes). The settings on record: 10% Ni-lipids vs control. The assay is classed as biochemical. From the text: The standard liposome components were designed to mimic a typical plasma membrane composition: 49% PE (brain or synthetic), 1% phosphatidylinositol 4,5-bisphosphate (PIP2), 20% brain phosphatidylserine (PS), 15% phosphatidylcholine (PC), 10% cholesterol and 5% sphingomyelin. The nickel liposome mix consisted of 39% PE (brain or synthetic), 1% PIP2, 20% brain PS, 15% PC, 10% cholesterol, 10% nickel lipid and 5% sphingomyelin.
A CLARIOstar plate reader (BMG Labtech) was used to measure the production of the fluorescent product. The excitation and emission wavelengths were 485–15 and 520–20, respectively. Each experiment was performed in at least triplicate; in many cases, nine-fold replicates were generated. The enzyme progress curves were plotted for each concentration of nucleotide using Graphpad Prism software. The initial linear rate of product generation was calculated and converted to a % inhibition when compared with the rate of PLC activity in the absence of nucleotide. These % inhibition values were plotted against the logarithm of the nucleotide concentration in Graphpad Prism and the data fitted with the function (Inhibitor) vs. response–variable slope (four parameters). The resultant fit yielded the IC50 values for the nucleotide inhibition.
The standard XY-69 assay format outlined above was repeated with the addition of 10% nickel lipids in the liposome mixture. […]

The test system of a further assay is PLCγ1^D1165H. The assay can be described thus: PLC activity assay 1 (A1), PLCγ1 D1165H variant. The class given is biochemical, human. How it is done: (§1) The effect of nucleotide inhibition on PLC activity was measured using either a membrane-based assay with the fluorescent substrate (XY-69) incorporated into liposomes or using a small soluble substrate, Aldol 518 myo-inositol-1-phosphate (Aldol). Both methods utilised the same PLC assay buffer [20 mM Hepes-KOH, 70 mM KCl, 3 mM EGTA, 2.97 mM CaCl2, 2 mM TCEP and fatty acid-free bovine serum albumin (FAF-BSA; 50 μg/ml) (pH 7.5)]. Both assays were performed in low volume black 384-well plates (Greiner Bio-One), were composed of a final assay volume of 20 μl and were monitored in a Clariostar plate reader (BMG Labtech). […] The excitation and emission wavelengths were 588–15 and 642–20, respectively.
(§2) A CLARIOstar plate reader (BMG Labtech) was used to measure the production of the fluorescent product. The excitation and emission wavelengths were 485–15 and 520–20, respectively. Each experiment was performed in at least triplicate; in many cases, nine-fold replicates were generated. The enzyme progress curves were plotted for each concentration of nucleotide using Graphpad Prism software. The initial linear rate of product generation was calculated and converted to a % inhibition when compared with the rate of PLC activity in the absence of nucleotide. […]

The subject of the next assay is PLCγ1^S345F. The assay can be described thus: PLC activity assay 1 (A1), PLCγ1 S345F variant. The assay is classed as biochemical, human. How it is done: as §1, §2
Assay [2] deals with T1, PLCγ1^wt. Kind of assay: Saturation transfer difference (STD) NMR binding. The settings on record: STD amplification factor vs ADP concentration; likely an overestimate; read-out: Kd, STD-NMR, H2 resonance. How it is done: Protein was buffer exchanged into phosphate buffered saline (pH 7.5) prepared in deuterium oxide. A 10 mM stock of ultrapure ADP was purchased from Promega. NMR spectra were acquired at 293 K in a Bruker Avance Neo 600 MHz spectrometer equipped with QCI-F cryoprobe and operating Topspin 4.2. Saturation transfer difference NMR experiments (stddiffesgp.3) were acquired with 2 s saturation at 0.75 and 50 ppm using 50 ms Gaussian pulses. For the determination of Kd, ADP was added to the protein at ligand excesses from 5- to 100-fold. The protein concentration was 10 µM. STD amplification factors, AF=L0/P0⋅Iref−Isat/Iref , were measured and fitted to a hyperbolic dose-response model to determine the dissociation constant for the protein/ADP interaction.

pKd: −log10 of the molar value.

Regarding `Nc1ncnc2c1ncn2[C@@H]1O[C@H](COP(=O)(O)OP(=O)(O)OP(=O)(O)O)[C@@H](O)[C@H]1O` [ATP], the “effect of immobilisation to liposomes on inhibition of PLC activity” value at PLCγ1^wt [1] is reported as “prevented or, at higher concentrations, reduced inhibition”.
`Nc1ncnc2c1ncn2[C@@H]1O[C@H](COP(=O)(O)OP(=O)(O)O)[C@@H](O)[C@H]1O` [ADP]: the “IC50 relative to PLCγ1^wt (fold higher)” value in the assay on PLCγ1^D1165H and with PLCγ1^S345F was 5–7 fold throughout. The pKd on PLCγ1^wt [2] was about 3.71.

As a reminder, the pKd is the negative decadic logarithm of the Kd, by convention in mol/L.

The values are drawn from PMC12687421, “Characterisation of an allosteric site in PLCγ enzymes and implications for development of their specific inhibitors” (Biochemical Journal, 2025).
